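Protocol summary: plate cells (96-well), add compound at 5 concentrations, incubate 48 h, interpolate endpoints linearly. GI50 = concentration required for 50% inhibition of growth.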 Calls of active or inactive are those of the source. Cut-off read from the data, not from the text of the source: active = GI50 up to about 1.1 µM and inactive = higher.
How the values were obtained:
Experiment in all cases: growth of human tumour cells (NCI), 48 h
HL-60 = tested on: HL-60
Malme-3M = tested on: Malme-3M
OVCAR-8 = tested on: OVCAR-8
U-251 = tested on: U-251
Hs-578T = tested on: Hs-578T
COLO 205 = tested on: COLO 205
HOP-92 = tested on: HOP-92
MDA-MB-435 = tested on: MDA-MB-435
NCI-H226 = tested on: NCI-H226
LOX IMVI = tested on: LOX IMVI
OVCAR-4 = tested on: OVCAR-4
SW-620 = tested on: SW-620
KM12 = tested on: KM12
SNB-19 = tested on: SNB-19
SR = tested on: SR
SF-268 = tested on: SF-268
OVCAR-3 = tested on: OVCAR-3
MCF7 = tested on: MCF7
A549 = tested on: A549
CCRF-CEM = tested on: CCRF-CEM

| SMILES | GI50 (HL-60) | GI50 (Malme-3M) | GI50 (OVCAR-8) | GI50 (U-251) | GI50 (Hs-578T) | GI50 (COLO 205) | GI50 (HOP-92) | GI50 (MDA-MB-435) | GI50 (NCI-H226) | GI50 (LOX IMVI) | GI50 (OVCAR-4) | GI50 (SW-620) | GI50 (KM12) | GI50 (SNB-19) | GI50 (SR) | GI50 (SF-268) | GI50 (OVCAR-3) | GI50 (MCF7) | GI50 (A549) | GI50 (CCRF-CEM) |
| --- | --- | --- | --- | --- | --- | --- | --- | --- | --- | --- | --- | --- | --- | --- | --- | --- | --- | --- | --- | --- |
| c1cncc(-c2cc(-c3cc(-c4cccnc4)[nH]n3)n[nH]2)c1 | > 100 µM (inactive) | > 100 µM (inactive) | > 100 µM (inactive) | > 100 µM (inactive) | > 100 µM (inactive) | > 100 µM (inactive) | > 100 µM (inactive) | > 100 µM (inactive) | > 100 µM (inactive) | > 100 µM (inactive) | > 100 µM (inactive) | > 100 µM (inactive) | > 100 µM (inactive) | > 100 µM (inactive) | > 100 µM (inactive) | > 100 µM (inactive) | > 100 µM (inactive) | > 100 µM (inactive) | > 100 µM (inactive) | – |
| CO[C@@]12C[C@H](CNC(=O)c3ccc[nH]3)O[C@@H]1NC(=O)N2 | > 100 µM (inactive) | > 100 µM (inactive) | > 100 µM (inactive) | > 100 µM (inactive) | > 100 µM (inactive) | > 100 µM (inactive) | > 100 µM (inactive) | > 100 µM (inactive) | > 100 µM (inactive) | > 100 µM (inactive) | > 100 µM (inactive) | > 100 µM (inactive) | > 100 µM (inactive) | > 100 µM (inactive) | > 100 µM (inactive) | > 100 µM (inactive) | > 100 µM (inactive) | > 100 µM (inactive) | > 100 µM (inactive) | – |
| O=C1CN(c2ccc(Cl)cc2)C(=O)CN1CCN1CC(=O)N(c2ccc(Cl)cc2)CC1=O | > 100 µM (inactive) | > 100 µM (inactive) | > 100 µM (inactive) | > 100 µM (inactive) | > 100 µM (inactive) | > 100 µM (inactive) | > 100 µM (inactive) | > 100 µM (inactive) | – | – | > 100 µM (inactive) | > 100 µM (inactive) | > 100 µM (inactive) | > 100 µM (inactive) | > 100 µM (inactive) | > 100 µM (inactive) | > 100 µM (inactive) | > 100 µM (inactive) | > 100 µM (inactive) | > 100 µM (inactive) |
| O=[N+]([O-])c1ccc(SN=S=NSc2cccc(SN=S=NSc3ccc([N+](=O)[O-])cc3)c2)cc1 | 28.2 µM (inactive) | 28.1 µM (inactive) | 22.4 µM (inactive) | 16.4 µM (inactive) | 58.3 µM (inactive) | 46.5 µM (inactive) | > 100 µM (inactive) | 25.2 µM (inactive) | – | 17.2 µM (inactive) | 36.7 µM (inactive) | 20.4 µM (inactive) | 34.2 µM (inactive) | 38.5 µM (inactive) | 26.8 µM (inactive) | 33 µM (inactive) | 62.1 µM (inactive) | 24.6 µM (inactive) | 46.5 µM (inactive) | 6 µM (inactive) |
| S=C(N/N=C(\C(=N/NC(=S)N1CCCCC1)c1ccccn1)c1ccccn1)N1CCCCC1 | 1.12 µM (active) | 17.3 µM (inactive) | 27.9 µM (inactive) | 32.7 µM (inactive) | 28.8 µM (inactive) | 6.38 µM (inactive) | 64.3 µM (inactive) | 38.4 µM (inactive) | 26.3 µM (inactive) | 20.2 µM (inactive) | – | 9.12 µM (inactive) | 51.8 µM (inactive) | 30.3 µM (inactive) | > 100 µM (inactive) | 5.55 µM (inactive) | 3.63 µM (inactive) | 12.1 µM (inactive) | 31.1 µM (inactive) | 3.91 µM (inactive) |
| Cc1cc(Br)cc(C)c1NC(=O)C(=O)Nn1c(S)nc2ccccc2c1=O | > 100 µM (inactive) | > 100 µM (inactive) | > 100 µM (inactive) | > 100 µM (inactive) | > 100 µM (inactive) | – | > 100 µM (inactive) | > 100 µM (inactive) | > 100 µM (inactive) | > 100 µM (inactive) | 33.8 µM (inactive) | > 100 µM (inactive) | > 100 µM (inactive) | 78.9 µM (inactive) | > 100 µM (inactive) | > 100 µM (inactive) | > 100 µM (inactive) | > 100 µM (inactive) | > 100 µM (inactive) | > 100 µM (inactive) |

— ChEMBL document CHEMBL1201862, “PubChem BioAssay data set” (2004)
